Laboratory results reported in ChEMBL document CHEMBL3351437, “Ralfuranone Is Produced by an Alternative Aryl-Substituted γ-Lactone Biosynthetic Route in Ralstonia solanacearum” (2014).
Converted amounts (≈) assume the structure as drawn. The source made the active and inactive calls. The calls are words filed in the database; no cut-off is given here.

What was measured:
Bacillus subtilis [1] = experiment: Antimicrobial activity against Bacillus subtilis at 342 uM after 18 hrs by microdilution method; type: functional, organism-based
Staphylococcus aureus [2] = experiment: Antimicrobial activity against Staphylococcus aureus at 342 uM after 18 hrs by microdilution method; type: functional, organism-based
Staphylococcus aureus [3] = experiment: Antimicrobial activity against methicillin-resistant Staphylococcus aureus at 342 uM after 18 hrs by microdilution method; type: functional, organism-based
Enterococcus faecalis [4] = experiment: Antimicrobial activity against vancomycin-resistant Enterococcus faecalis at 342 uM after 18 hrs by microdilution method; type: functional, organism-based
Penicillium chrysogenum [5] = experiment: Antimicrobial activity against Penicillium notatum assessed as inhibition of conidia germination at 342 uM after 18 hrs by microdilution method; type: functional, organism-based
Mycolicibacterium vaccae [6] = experiment: Antimicrobial activity against Mycobacterium vaccae at 342 uM after 18 hrs by microdilution method; type: functional, organism-based
Enterococcus faecalis [7] = experiment: Antimicrobial activity against vancomycin-resistant Enterococcus faecalis after 18 hrs by microdilution method; type: functional
Bacillus subtilis [8] = experiment: Antimicrobial activity against Bacillus subtilis after 18 hrs by microdilution method; type: functional
Mycolicibacterium vaccae [9] = experiment: Antimicrobial activity against Mycobacterium vaccae after 18 hrs by microdilution method; type: functional
Penicillium chrysogenum [10] = experiment: Antimicrobial activity against Penicillium notatum assessed as inhibition of conidia germination after 18 hrs by microdilution method; type: functional
Staphylococcus aureus [11] = experiment: Antimicrobial activity against Staphylococcus aureus after 18 hrs by microdilution method; type: functional
Staphylococcus aureus [12] = experiment: Antimicrobial activity against methicillin-resistant Staphylococcus aureus after 18 hrs by microdilution method; type: functional

SMILES | MIC (Enterococcus faecalis [7]) | MIC (Bacillus subtilis [8]) | MIC (Mycolicibacterium vaccae [9]) | MIC (Penicillium chrysogenum [10]) | other results
O=C1OCC(c2ccccc2)=C1C(O)c1ccccc1 (stereo unspecified) |  |  |  |  | Activity (Bacillus subtilis [1]): inactive; Activity (Staphylococcus aureus [2]): inactive; Activity (Staphylococcus aureus [3]): inactive; Activity (Enterococcus faecalis [4]): inactive; Activity (Penicillium chrysogenum [5]): inactive; Activity (Mycolicibacterium vaccae [6]): inactive
O=C(O)c1cn(C2CC2)c2cc(N3CCNCC3)c(F)cc2c1=O [CIPROFLOXACIN] | 1.56 µg/mL | < 0.05 µg/mL | 0.2 µg/mL |  | 
C[C@@H]1[C@H](O)[C@@H](C)/C=C/C=C/C=C/C=C/C=C/C=C/C=C/[C@H](O[C@@H]2O[C@H](C)[C@@H](O)[C@H](N)[C@@H]2O)C[C@@H]2O[C@](O)(C[C@@H](O)C[C@@H](O)[C@H](O)CC[C@@H](O)C[C@@H](O)CC(=O)O[C@H]1C)C[C@H](O)[C@H]2C(=O)O [AMPHOTERICIN B] |  |  |  | 0.4 µg/mL | 
O=C(O)C1=C(c2ccccc2)/C(=C/c2ccccc2)C(=O)O1 | 21.2 µM | 5.3 µM | 10.6 µM | 42.4 µM | MIC (Staphylococcus aureus [11]): 5.3 µM (≈ 1.55 µg/mL); MIC (Staphylococcus aureus [12]): 5.3 µM (≈ 1.55 µg/mL)
